# According to patent US7323541B2, “Polypeptide DNA thereof and use of the same” (Takeda Pharmaceutical Company Limited, priority 2001, dated 2008):
# Positions count from the first letter of the chain named. Where no end group is shown, it is not given here.
# Assays:
# [1] = molecular target: T1, human TGR23-1C expressing CHO cells (Homo sapiens, UniProt Q6W5P4, N107I); test: Intracellular Ca ion concentration increasing activity using FLIPR; format: cell-based
# T1 construct: expressed in transfected cells; host or cells: CHO dhfr- cells, pAKKO-TGR23-1C, clone No. 9
# T1 sequence (Q6W5P4 1-371 N107I): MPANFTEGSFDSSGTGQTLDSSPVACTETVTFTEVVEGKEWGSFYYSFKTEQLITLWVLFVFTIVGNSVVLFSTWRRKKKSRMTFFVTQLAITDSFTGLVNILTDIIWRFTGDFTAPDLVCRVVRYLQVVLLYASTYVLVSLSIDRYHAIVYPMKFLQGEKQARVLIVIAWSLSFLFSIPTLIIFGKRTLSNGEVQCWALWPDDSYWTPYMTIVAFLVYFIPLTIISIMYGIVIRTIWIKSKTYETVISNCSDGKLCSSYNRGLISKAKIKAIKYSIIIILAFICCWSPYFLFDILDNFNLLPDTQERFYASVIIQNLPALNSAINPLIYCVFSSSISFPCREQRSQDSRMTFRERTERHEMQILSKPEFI
# Experimental: (§1) An enhancing activity of intracellular Ca^2+ release was assayed using FLIPR (Molecular Devices, Inc.). The CHO/TGR23-2 cells prepared in Example 1 and selected in Example 2 were plated on 96-well plate at 3×10^4 cells/well and cultured for 24 hours. A loading buffer was prepared by adding 1 vial of Fluo 3-AM to 10 ml of Hanks' solution (pH7.4) containing 2.5 mM Probenecid and 20 mM HEPES (hereafter, Hanks' solution (pH7.4) containing 2.5 mM Probenecid and 20 mM HEPES may be referred to as a washing buffer). The culture medium was discarded from the culture plate and 100 μl/well of the loading buffer were added to the cells. Then, the cells were incubated for 60 minutes in the incubator. After the loading buffer was removed from the culture plate and the cells were washed with the washing buffer, the plate was put in place of FLIPR. A sample was prepared by adding a sample buffer, which 2 mg/ml BSA and 1 mg/ml CHAPS were added to the washing buffer, to lyophilized product, stirring and treating by ultrasonication for 30 minutes, and transferred to 96-well sample plate. This sample plate was also put in place for assay. The enhancing activity of intracellular Ca^2+ release was measured as an increase of fluorescent intensity, which is raised by addition of the sample.
# (§2) The human TGR23-2 ligand (1-20) having various concentrations was administered in accordance with the method described in Example 5, to the CHO cells, in which human TGR23-1A, human TGR23-1B, human TGR23-1C and human TGR23-1D are expressed. Subsequently, the intracellular Ca ion concentration increasing activity was measured using FLIPR.
# [2] = molecular target: T2, human TGR23-1B expressing CHO cells (Homo sapiens, UniProt Q6W5P4, N107I/S241R); test: as above; format: cell-based
# T2 construct: expressed in transfected cells; host or cells: CHO dhfr- cells, pAKKO-TGR23-1B, clone No. 59
# T2 sequence (Q6W5P4 1-371 N107I/S241R): T1 sequence (Q6W5P4 1-371 N107I) with S241R
# Experimental: as §1, §2
# [3] = Feeding level after administration into rat lateral ventricle; format: in vivo, Wistar rats; details: 10 nmol/rat, at 1.5 hours and two hours after administration, vs distilled water group, p<0.05
# Experimental: Effects on the feeding level by administration of the human TGR23-2 ligand (1-20) into rat lateral ventricle were studied.
# Rats were bred for lightning hours from eight to twenty o'clock at 25° C. Male Wistar rats at eight weeks old (260 through 280 g of weight at the time of operation) were anesthetized with 50 mg/kg of pentobarbital, i.p., and each rat was immobilized in a rat brain stereotaxic apparatus. The incisor bar was set 3.3 mm lower from the interaural line. The skull was exposed, and using a dental drill a hole was made on the bone for implantation of a guide cannula AG-8 (0.4 mm inner diameter, 0.5 mm outer diameter, EICOM Co., Ltd.). In addition, three anchor screws were buried around the hole. A stainless-steel guide cannula, AG-8 was inserted in such a manner that its tip would be situated in the upper part of the lateral ventricle. Following the atlas of Paxinos and Watson (1986), the stereotaxic coordinates were set to AP: −0.8 mm, L: 1.5 mm, and H: −4.5 mm from the bregma. The guide cannula was secured to the skull using an instant adhesive, dental cement and anchor screws. […]
# For about one week after embedding of guide cannula, rats were bred to be postoperatively recuperative and be naturalized to powder feed. […] Feeding level after infusion was measured with time using Feed-Scale (Columbus) every 30 minutes until four hours after administration.
sequence,measurement,setting,value
SFRNGVGTGMKKTSFQRAKS [human TGR23-2 ligand (1-20)],intracellular Ca ion concentration increasing activity,[1],the intracellular Ca ion level increased depending on the concentration of this ligand
same,intracellular Ca ion concentration increasing activity,[2],the intracellular Ca ion level increased depending on the concentration of this ligand
same,feeding level,[3],significant decrease of feeding level
